Patent publication US4382888A, “Tryptophan derivative and process for production thereof” (Ajinomoto Company Incorporated, priority 1978, dated 1983)

Columns and labels:
chymotrypsin = chymotrypsin (Bos taurus, UniProt P00766); experiment: inhibitory activity against chymotrypsin; type: biochemical
subtilis = experiment: inhibitory activity against subtilis; type: biochemical
pepsin = pepsin (Sus scrofa, UniProt P00791); experiment: inhibitory activity against pepsin; type: biochemical
[1] = test system: metallo proteinase produced by Pseudomonas aeruginosa; experiment: inhibitory activity against metallo proteinase of Pseudomonas aeruginosa (casein digestion); type: biochemical
Description: (§1) A mixture of 0.25 ml of sample solution in 0.05 M phosphate buffer at pH 7.5 and 0.25 ml of thermolysin solution (20 μg/ml in the same buffer was incubated for 10 minutes at 37° C. The mixture was added with 1.5 ml of 1.33% Hammarsten casein solution in 0.1M phosphate buffer (pH 7.0) and incubated for 10 minutes at 37° C. By the addition of 2 ml of 0.44 M trichloroacetic acid the reaction was stopped. After standing for 30 minutes at 37° C., the reaction mixture was filtered. To 1.0 ml of the filtrate 5 ml of 0.55 M Na2 CO3 and 1 ml of 2 times diluted Folin-Ciocaltean reagent were added. After standing for 60 minutes at 37° C., the absorbance (Is) was measured at 660 mμ. The blank value (Ib) was taken by carrying out the reaction using 0.25 ml of 0.05M phosphate buffer (pH 7.5) instead of thermolysin. […] Inhibition rate against enzyme activity is calculated by the following equation: [formula] Now, inhibitory activity against metallo proteinase produced by Pseudomonas aeruginosa can be measured in the same manner as above wherein amounts of enzyme used is established so as to have following value. A value of (Es-Eb) according to method for measuring inhibitory activity is 0.6 wherein cell length used for the measurement of absorbance is 1 cm.

[2] = test system: metallo proteinase produced by Aspergillus oryzae; experiment: inhibitory activity against metallo proteinase of Aspergillus oryzae; type: biochemical
trypsin = molecular target: T1, trypsin (Bos taurus, UniProt P00760); experiment: inhibitory activity against trypsin; type: biochemical
T1 sequence (P00760 24-246): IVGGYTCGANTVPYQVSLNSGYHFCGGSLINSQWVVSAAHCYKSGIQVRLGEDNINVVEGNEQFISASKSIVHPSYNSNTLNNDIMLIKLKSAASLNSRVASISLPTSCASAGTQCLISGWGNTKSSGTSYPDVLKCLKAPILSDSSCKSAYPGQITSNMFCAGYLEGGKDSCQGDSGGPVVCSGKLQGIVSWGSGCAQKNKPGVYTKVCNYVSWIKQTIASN

papain = molecular target: T2, papain (Carica papaya, UniProt P00784); experiment: inhibitory activity against papain; type: biochemical
T2 sequence (P00784 134-345): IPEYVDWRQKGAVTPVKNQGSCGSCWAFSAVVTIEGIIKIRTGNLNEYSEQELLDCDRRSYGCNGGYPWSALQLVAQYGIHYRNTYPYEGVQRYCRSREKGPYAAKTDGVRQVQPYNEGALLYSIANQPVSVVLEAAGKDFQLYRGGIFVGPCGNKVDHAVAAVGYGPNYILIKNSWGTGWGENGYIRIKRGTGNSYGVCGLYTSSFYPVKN

Solubility = type: physicochemical
[3] = Stability in aqueous solution; type: physicochemical
thermolysin = thermolysin (Bacillus thermoproteolyticus, UniProt P00800); experiment: inhibitory activity against thermolysin (casein digestion, Folin reagent); type: biochemical, genus Bacillus
Description: as §1

[4] = amount of compound in the assay

thermolysin, sequence (P00800 233-548): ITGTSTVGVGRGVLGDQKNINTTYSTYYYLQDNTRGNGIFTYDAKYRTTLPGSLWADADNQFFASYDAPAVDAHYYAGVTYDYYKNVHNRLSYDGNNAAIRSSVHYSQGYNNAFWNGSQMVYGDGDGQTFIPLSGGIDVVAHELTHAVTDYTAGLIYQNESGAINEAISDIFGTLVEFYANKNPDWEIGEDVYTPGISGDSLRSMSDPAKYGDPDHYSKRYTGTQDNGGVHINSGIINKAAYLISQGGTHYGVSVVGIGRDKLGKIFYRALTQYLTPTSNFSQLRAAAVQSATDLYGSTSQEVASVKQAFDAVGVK
pepsin, sequence (P00791 60-385): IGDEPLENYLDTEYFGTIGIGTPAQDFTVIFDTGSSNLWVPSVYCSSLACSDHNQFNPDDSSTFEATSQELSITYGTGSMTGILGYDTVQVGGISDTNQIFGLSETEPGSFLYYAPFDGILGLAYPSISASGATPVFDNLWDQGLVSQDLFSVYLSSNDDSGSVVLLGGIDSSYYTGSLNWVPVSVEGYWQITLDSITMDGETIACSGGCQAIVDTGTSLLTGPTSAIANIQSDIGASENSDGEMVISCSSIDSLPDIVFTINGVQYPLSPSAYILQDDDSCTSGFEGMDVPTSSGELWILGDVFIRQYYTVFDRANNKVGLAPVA

## CC(C)C[C@H](NP(=O)(O)OC1O[C@@H](C)[C@@H](O)[C@@H](O)[C@H]1O)C(=O)N[C@@H](Cc1c[nH]c2ccccc12)C(=O)O (stereo partly drawn) [novel tryptophan derivative, N-(6-deoxy-L-talosyloxy hydroxyphosphinyl)-L-leucyl-L-tryptophan]
chymotrypsin
  inhibiting activity (in words): does not inhibit
subtilis
  inhibiting activity (in words): does not inhibit
pepsin
  inhibiting activity (in words): does not inhibit
[1]
  inhibiting activity (in words): strongly inhibits
[1]; [4]
  Amount necessary for inhibiting 50% of the enzyme activity: 4 µg
[2]
  inhibiting activity (in words): inhibits
trypsin
  inhibiting activity (in words): does not inhibit
papain
  inhibiting activity (in words): does not inhibit
Solubility; benzene
  Solubility: Insoluble
Solubility; chloroform
  Solubility: Insoluble
Solubility; ethanol
  Solubility: Soluble
Solubility; ether
  Solubility: Insoluble
Solubility; hexane
  Solubility: Insoluble
Solubility; methanol
  Solubility: Soluble
Solubility; water
  Solubility: Soluble
[3]; acidic aqueous solution
  Stability: Unstable
[3]; standing for 24 hours at pH 1
  Stability (remaining activity): Activity is lost completely
[3]; weak acidic, neutral, or alkaline aqueous solution
  Stability: Stable
thermolysin
  inhibiting activity (in words): strongly inhibits
thermolysin; [4]
  Amount necessary for inhibiting 50% of the enzyme activity: 0.35 µg
